According to the supplement of paper PMC10307832:

What was measured:
Experiment in all cases: relative viability (nuclei count vs DMSO), 5 days (fraction); higher = more cells survive
[1] = compound: CC[C@H](Nc1ncnc2[nH]cnc12)c1nc2cccc(F)c2c(=O)n1-c1ccccc1 [Idelalisib] + Nc1nc2[nH]cc(CCc3ccc(C(=O)N[C@@H](CCC(=O)O)C(=O)O)cc3)c2c(=O)[nH]1 [Pemetrexed] (partner 0.2 µM)
In short: (§1)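 Lung cancer cell lines were seeded in 1536-well plates and dosed by pin tool the next day, with either a single drug or a fixed anchor-drug dose combined with five library-drug doses (not always all listed) spaced in √10 steps. Five days later, one step fixed the cells and stained their nuclei (final 0.05% Triton X-100, 1% formaldehyde, 1 ug/ml Hoechst), and nuclei were counted on 4× images. Relative viability is the nuclei count in treated wells divided by the count in vehicle wells, and each value is the median of duplicate plates.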

[2] = compound: CC[C@H](Nc1ncnc2[nH]cnc12)c1nc2cccc(F)c2c(=O)n1-c1ccccc1 [Idelalisib] + O=C(c1cc(Cc2n[nH]c(=O)c3ccccc23)ccc1F)N1CCN(C(=O)C2CC2)CC1 [Olaparib] (partner 8 µM)
In short: as §1

[3] = compound: Nc1nc2[nH]cc(CCc3ccc(C(=O)N[C@@H](CCC(=O)O)C(=O)O)cc3)c2c(=O)[nH]1 [Pemetrexed] + COc1cccc2cc(-c3nc([C@H]4CC[C@H](C(=O)O)CC4)n4ncnc(N)c34)[nH]c12 [OSI-027] (partner 0.5 µM)
In short: as §1

[4] = compound: Nc1nc2[nH]cc(CCc3ccc(C(=O)N[C@@H](CCC(=O)O)C(=O)O)cc3)c2c(=O)[nH]1 [Pemetrexed] + C[C@]1(O)C[C@@H](c2nc(-c3ccc4ccc(-c5ccccc5)nc4c3)c3c(N)nccn32)C1 [Linsitinib] (partner 1 µM)
In short: as §1

Cell Line	relative viability ([1]; first compound 0.04 µM)	relative viability ([1]; first compound 0.1265 µM)	relative viability ([1]; first compound 1.265 µM)	relative viability ([1]; first compound 4 µM)	relative viability ([2]; first compound 0.04 µM)	relative viability ([2]; first compound 0.1265 µM)	relative viability ([2]; first compound 1.265 µM)	relative viability ([2]; first compound 4 µM)	relative viability ([3]; first compound 0.002 µM)	relative viability ([3]; first compound 0.006325 µM)	relative viability ([3]; first compound 0.02 µM)	relative viability ([3]; first compound 0.06325 µM)	relative viability ([3]; first compound 0.2 µM)	relative viability ([4]; first compound 0.002 µM)	relative viability ([4]; first compound 0.006325 µM)	relative viability ([4]; first compound 0.02 µM)	relative viability ([4]; first compound 0.06325 µM)	relative viability ([4]; first compound 0.2 µM)	relative viability ([1]; first compound 0.4 µM)	relative viability ([2]; first compound 0.4 µM)
NCI-H441	0.247	0.233	0.285	0.251	0.532	0.582	0.618	0.55	0.63	0.504	0.574	0.431	0.368	0.553	0.572	0.454	0.414	0.269	–	–
NCI-H520	0.75	0.595	0.637	0.451	0.34	0.364	0.302	0.269	0.225	0.246	0.321	0.267	0.265	0.946	0.911	0.926	1.09	0.956	0.567	0.276
CAL-12T	1.34	0.925	1.21	1.23	0.767	0.823	0.852	0.75	0.617	0.631	0.819	0.648	0.671	0.776	0.744	0.932	0.996	0.782	1.22	0.796
HCC-827	0.267	0.218	0.249	0.25	0.667	0.613	0.571	0.491	0.663	0.756	0.899	0.764	0.591	0.843	0.946	1.02	0.997	0.846	0.232	0.612
LC-2-ad	0.282	0.276	0.267	0.26	0.691	0.728	0.805	0.734	0.606	0.831	0.561	0.28	0.339	0.811	0.83	0.819	0.24	0.188	0.25	0.764
NCI-H2170	0.292	0.254	0.262	0.29	0.606	0.679	0.558	0.515	0.656	0.698	0.692	0.708	0.744	–	–	–	–	–	0.268	0.643
SW 1573	0.825	0.848	0.702	0.739	0.465	0.426	0.521	0.431	0.602	0.465	0.718	0.646	0.61	0.794	0.761	0.7	0.752	0.837	0.802	0.364
SK-MES-1	0.993	0.997	0.433	0.909	0.736	0.711	0.636	0.448	0.72	0.611	0.615	0.572	0.554	1.01	1.02	1.07	0.984	0.955	0.878	0.679
NCI-H1648	0.711	0.76	0.749	0.53	–	1.16	1.11	0.657	0.253	0.268	0.22	–	0.26	–	–	–	–	–	0.806	0.712
NCI-H1793	0.821	0.95	0.81	0.627	0.957	0.764	0.566	0.529	0.251	0.259	0.309	0.284	0.289	0.862	0.722	0.676	0.841	0.779	–	–
NCI-H1299	–	–	–	–	1.01	0.982	1.02	1.06	–	–	–	–	–	0.926	0.929	1.07	0.992	0.471	–	0.941
LCLC-97TM1	0.182	0.182	0.155	0.199	0.328	0.349	0.347	0.378	0.552	0.361	0.61	0.477	0.235	0.151	0.152	0.184	0.133	0.174	0.15	0.324
NCI-H1915	0.503	0.514	0.363	0.504	0.252	0.241	0.264	0.27	0.58	0.631	0.661	0.609	0.573	1.11	1.08	1.13	1.11	1.07	0.443	0.276
NCI-H661	0.973	0.926	0.952	0.924	0.821	0.783	0.888	0.764	0.782	0.711	0.767	0.698	0.694	0.632	0.515	0.637	0.505	0.561	0.911	0.738
NCI-H2405	1.13	1.06	0.974	1.09	0.893	0.885	0.868	0.836	0.628	0.597	0.67	0.641	0.663	1.01	0.913	1.03	0.894	0.975	0.986	0.76
NCI-H2347	0.436	0.423	0.452	0.402	0.591	0.659	0.644	0.464	0.296	0.292	0.49	0.406	0.339	0.874	0.932	0.938	0.716	0.521	0.436	0.528
NCI-H1651	0.634	0.355	0.522	0.59	0.19	0.171	0.161	0.179	0.61	0.66	0.805	0.624	0.717	0.995	0.977	0.987	0.903	0.895	0.537	0.184

Cell Line	relative viability ([1]; first compound 0.04 µM)	relative viability ([1]; first compound 0.1265 µM)	relative viability ([1]; first compound 1.265 µM)	relative viability ([1]; first compound 4 µM)	relative viability ([2]; first compound 0.04 µM)	relative viability ([2]; first compound 0.1265 µM)	relative viability ([2]; first compound 1.265 µM)	relative viability ([2]; first compound 4 µM)	relative viability ([3]; first compound 0.002 µM)	relative viability ([3]; first compound 0.006325 µM)	relative viability ([3]; first compound 0.02 µM)	relative viability ([3]; first compound 0.06325 µM)	relative viability ([3]; first compound 0.2 µM)	relative viability ([4]; first compound 0.002 µM)	relative viability ([4]; first compound 0.006325 µM)	relative viability ([4]; first compound 0.02 µM)	relative viability ([4]; first compound 0.06325 µM)	relative viability ([4]; first compound 0.2 µM)	relative viability ([1]; first compound 0.4 µM)	relative viability ([2]; first compound 0.4 µM)
H3255	0.692	0.551	0.561	0.488	0.567	0.555	0.573	0.513	0.542	0.55	0.598	0.659	0.585	0.83	0.976	1.04	0.946	0.768	0.55	0.534
Calu-6	–	–	–	–	0.669	0.61	0.657	0.53	–	–	–	–	–	–	0.964	1.08	0.977	0.72	–	0.533
SW 900	0.493	0.488	0.509	0.406	0.904	0.842	0.93	0.665	0.633	0.608	0.689	0.591	0.464	–	–	–	–	–	0.476	0.729
NCI-H650	0.983	0.995	0.77	0.92	0.414	0.441	0.334	0.37	0.536	0.562	0.551	0.507	0.532	0.651	0.983	1.1	0.944	0.839	0.923	0.362
NCI-H1650	0.276	0.43	0.382	0.319	0.793	0.865	0.789	0.654	0.674	0.531	0.714	0.356	0.304	–	–	–	–	–	0.373	0.768
NCI-H2342	0.853	0.74	0.706	0.765	0.442	0.481	0.421	0.407	0.537	0.618	0.593	0.633	0.698	–	–	–	–	–	0.717	0.457
NCI-H522	1.3	0.99	1.21	1.05	0.684	0.526	0.678	0.72	0.794	0.65	0.796	0.706	0.676	–	–	–	–	–	0.995	0.606
EBC-1	–	–	–	–	0.721	0.777	0.65	0.588	–	–	–	–	–	0.864	0.73	0.894	0.919	0.605	–	0.763
ChaGo-K-1	0.254	0.252	0.254	0.264	0.347	0.399	0.38	0.379	0.572	0.59	0.61	0.317	0.23	–	–	–	–	–	0.268	0.472
IA-LM	–	–	–	–	0.711	0.952	1.02	0.93	–	–	–	–	–	0.484	0.488	0.784	0.702	0.644	–	0.747
NCI-H1703	–	–	–	–	0.459	0.436	0.388	0.237	–	–	–	–	–	0.889	0.943	1.08	0.64	0.731	–	0.365
A549	–	–	–	–	0.238	0.28	0.266	0.361	–	–	–	–	–	0.568	0.569	0.645	0.57	0.709	–	0.236
NCI-H727	–	–	–	–	0.813	0.624	0.779	0.836	0.568	0.668	0.587	0.692	0.752	0.154	0.272	0.218	0.332	0.264	–	0.688
NCI-H1623	–	–	–	–	–	–	–	–	0.406	0.451	0.552	0.462	0.426	–	–	–	–	–	–	–
NCI-H1563	0.845	0.73	0.757	0.732	–	–	–	–	0.731	0.695	0.803	0.728	0.778	1.1	1.13	1.17	1.18	1.17	0.714	–
ABC-1	–	–	–	–	0.947	0.913	0.97	0.68	0.515	0.359	0.736	0.529	0.512	0.904	0.804	0.828	0.753	0.713	–	0.78
